Laboratory results: patent US6555550B1, “Musarinic agonists and antagonists” (UCB, S. A.,, priority 1998, dated 2003)

Columns and labels:
cloned human M4 mAChRs = target: T1, cloned human M4 mAChRs (Homo sapiens, UniProt P08173); assay: Binding to cloned human M4 mAChRs expressed in CHO-Kl cells; details: 2.5 nM 3H-oxotremorine M, CHO-Kl M4 membranes, pH 7
T1 construct: expressed in transfected cells; host or cells: CHO-K1 cells (membrane preparation)
T1 sequence (P08173 1-479): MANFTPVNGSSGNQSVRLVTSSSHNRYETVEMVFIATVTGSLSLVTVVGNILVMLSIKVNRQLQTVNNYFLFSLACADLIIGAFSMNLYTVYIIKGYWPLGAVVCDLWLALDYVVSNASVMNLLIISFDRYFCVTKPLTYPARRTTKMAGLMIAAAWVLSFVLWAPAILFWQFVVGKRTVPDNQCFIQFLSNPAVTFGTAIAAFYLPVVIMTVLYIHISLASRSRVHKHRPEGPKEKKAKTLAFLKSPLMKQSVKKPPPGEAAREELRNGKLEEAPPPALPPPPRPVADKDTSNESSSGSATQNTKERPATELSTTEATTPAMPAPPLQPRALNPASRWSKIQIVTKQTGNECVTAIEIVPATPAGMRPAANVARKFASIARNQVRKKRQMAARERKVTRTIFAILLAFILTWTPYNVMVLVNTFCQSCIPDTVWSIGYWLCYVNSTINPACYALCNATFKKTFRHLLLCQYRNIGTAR
Procedure: Binding to Cloned Human M4 […] Expressed in CHO-Kl Cells
The following protocol was used to detect binding to cloned human M4 mAChRs expressed in CHO-Kl cells.
A membrane preparation was made from CHO-Kl cells expressing human M4 mAChRs. Aliquots of membrane were stored at −70° C. until thawed on the day of assay. For each assay, CHO-Kl M4 membrane preparation (approximately 20 μg of protein) was incubated with test compound and 2.5 nM ^3H-oxotremorine M (DuPont, NEN) in 20 mM HEPES buffer, pH 7 in an assay volume of 200 μl. Assays were incubated in 96-well polypropylene plates for 40 minutes at room temperature. Nonspecific binding was determined in samples incubated in parallel in the presence of 10 μM atropine (Sigma) instead of test compound. The incubations were terminated by rapid vacuum filtration using a Packard plate harvester through 96-well Whatman GF/B filter plates presoaked in 0.5% polyethylenimine. The filter plate was washed rapidly four times with 0.2 ml aliquots of water. The plate was dried by placing under a heat lamp for 5 minutes. The plate was counted using a Packard scintillation counter after addition of 35 μl Microscint 20 scintillation fluid. Data were analyzed by nonlinear regression analysis.
Results from this assay are used to show the ability of compounds of this invention to bind to the agonist binding site of the muscarinic M4 receptor. Compounds which bind to this site have specific utility in the treatment of pain, schizophrenic disorders and cognitive disorders such as AD.

Female CD-1 mice [1] = assay: Body temperature (rectal probe); type: in vivo; details: at tail-flick ED50 dose; core temperature
Procedure: At ambient temperature, a temperature probe (type T Thermocouple Thermometer, BAT-10; Physitemp Inc., Clifton, N.J.) was inserted 1.0 cm into the rectum of mice to measure their core temperature and recorded at 0 (before drug as a control baseline), 10, 25 and 55 min after injection of compounds.

Female CD-1 mice [2] = assay: Tail-flick assay; type: in vivo; details: injection, % MPE, 10-second cut-off; for ED50: Mus musculus
Description: The tail flick assay is a commonly used animal model of analgesia. It is a stringent enough assay such that opiates (e.g., morphine) show activity in this model, whereas the non-steroidal antiinflammatories (NSAD's) such as ibuprofen are ineffective. As such, it is a useful assay system for investigating the utility of novel compounds for the treatment of severe and chronic pain.
Female CD-1 mice, weighing 20-30 grams were obtained from Charles River laboratories (Wilmington, Mass., USA). A commercially available tail-flick analgesia meter was used (Model TF-6 Analgesia Meter, Emdie Instrument Co., Maidens, Va.). […] A 10-second cut-off time was used as the maximum latency to avoid damage to the mice tails. The latency of each mouse (a mean of two separate test results for each time-point), was obtained at 0 (immediately prior to dosing), 5, 15, 30, and 60 min. time-points after injection of compounds and the % Maximum Possible Effect (% MPE) was calculated by using the formula, % MPE=[(postdrug latency−predrug latency)÷(cutoff time−predrug latency)]×100.

Female CD-1 mice [3] = assay: Sedation by visual inspection; type: in vivo; details: at tail-flick ED50 dose
Description: Sedation was noted by close visual inspection of the animal.

| SMILES | Human M4 in CHO-K1 Assay (cloned human M4 mAChRs) [nM] | Side Effect Profile at ED50 Dose: Hypothermia (Female CD-1 mice [1]) [°C] | Tail-Flick ED50 (Female CD-1 mice [2]) [mg/kg] | Side Effect Profile at ED50 Dose: Sedation (Female CD-1 mice [3]) | ED50 (Female CD-1 mice [2]) [mg/kg] |
| --- | --- | --- | --- | --- | --- |
| COc1nsnc1C1C2CC3CC1CN(C3)C2 (stereo not shown) [Cmpd 21, 3-(5-azatricyclo[3.3.1.1<3,7>]dec-2-yl)-4-methoxy-1,2,5-thiadiazoles] | 5.9 | 0 | >5 | No sedation | – |
| CCC(C)Oc1nsnc1C1C2CC3CC1CN(C3)C2 (stereo not shown) [Cmpd 27, 3-(5-azatricyclo[3.3.1.1<3,7>]dec-2-yl)-4-(1-methyl-propoxy)-1,2,5-thiadiazoles] | 1.55 | 0 | >5 | No sedation | – |
| CCCCOc1nsnc1C1C2CC3CC1CN(C3)C2 (stereo not shown) [Cmpd 14, 3-(5-azatricyclo[3.3.1.1<3,7>]dec-2-yl)-4-butoxy-1,2,5-thiadiazole] | 3.8 | 2.0 | – | Slight | > 10 |
| CCOc1nsnc1C1C2CC3CC1CN(C3)C2 (stereo not shown) [Cmpd 23, 3-(5-azatricyclo[3.3.1.1<3,7>]dec-2-yl)-4-ethoxy-1,2,5-thiadiazoles] | 0.46 | 0.5 | 1.5 | No sedation | – |
| C(CC1CC1)Oc1nsnc1C1C2CC3CC1CN(C3)C2 (stereo not shown) [Cmpd 25, 3-(5-azatricyclo[3.3.1.1<3,7>]dec-2-yl)-4-(cyclopropylethoxy)-1,2,5-thiadiazoles] | – | 1.5 | 4.5 | Slight | – |
| CCCOc1nsnc1C1C2CC3CC1CN(C3)C2 (stereo not shown) [Cmpd 12, 3-(5-azatricyclo[3.3.1.1<3,7>]dec-2-yl)-4-propoxy-1,2,5-thiadiazole] | 0.74 | 1.0 | – | Slight | 4.5 |
| CCCCOc1nsnc1C1C2CC3CC1CN(C3)C2 (stereo not shown) [Cmpd 13, 3-(5-azatricyclo[3.3.1.1<3,7>]dec-2-yl)-4-butoxy-1,2,5-thiadiazole] | 10 | – | – | – | – |
| Clc1nsnc1C1C2CC3CC1CN(C3)C2 (stereo not shown) [Cmpd 7, 3-(5-Azatricyclo[3.3.1.1<3,7>]dec-2-yl)-4-chloro-1,2,5-thiadiazole] | >88 | – | – | – | – |
| CCCOc1nsnc1C1C2CC3CC1CN3C2 (stereo not shown) [Cmpd 36, 4-(3-Azatricyclo[3.3.1.0<3,7>]non-9-yl)-3-propyloxy-1,2,5-thiadiazoles] | 3.2 | – | >5 | – | – |
| CCSc1nsnc1C1C2CC3CC1CN(C3)C2 (stereo not shown) [Cmpd 30, 3-(5-Azatricyclo[3.3.1.1<3,7>]dec-2-yl)-4-ethylthio-1,2,5-thiadiazole] | – | 1 | – | Sedation | 0.3 |
| CCOc1nsnc1C1C2CC3CC1CN3C2 (stereo not shown) [Cmpd 34, 4-(3-Azatricyclo[3.3.1.0<3,7>]non-9-yl)-3-ethoxy-1,2,5-thiadiazoles] | 4.6 | – | >2 | – | – |
| C1CC1CSc1nsnc1C1C2CC3CC1CN(C3)C2 (stereo not shown) [Cmpd 32, 3-(5-Azatricyclo[3.3.1.1<3,7>]dec-2-yl)-4-(cyclopropylmethyl)thio-1,2,5-thiadiazole] | – | <2 | – | Sedation | < 1 |
| CC(C)COc1nsnc1C1C2CC3CC1CN3C2 (stereo not shown) [Cmpd 38, 4-(3-Azatricyclo[3.3.1.0<3,7>]non-9-yl)-3-isobutyloxy-1,2,5-thiadiazoles] | – | – | >5 | – | – |
| CC(C)COc1nsnc1C1C2CC3CC1CN(C3)C2 (stereo not shown) [Cmpd 18, 3-(5-azatricyclo[3.3.1.1<3,7>]dec-2-yl)-4-(2-methyl-propoxy)-1,2,5-thiadiazole] | – | 0 | – | No sedation | > 5 |
| CCCSc1nsnc1C1C2CC3CC1CN(C3)C2 (stereo not shown) [Cmpd 29, 3-(5-Azatricyclo[3.3.1.1<3,7>]dec-2-yl)-4-propylthio-1,2,5-thiadiazoles] | – | 0.5 | <1 | Very slight | – |
| CCCCSc1nsnc1C1C2CC3CC1CN(C3)C2 (stereo not shown) [Cmpd 31, 3-(5-Azatricyclo[3.3.1.1<3,7>]dec-2-yl)-4-butylthio-1,2,5-thiadiazole] | – | 0 | – | No sedation | 0.3 |
| C1CC1COc1nsnc1C1C2CC3CC1CN(C3)C2 (stereo not shown) [Cmpd 16, 3-(5-azatricyclo[3.3.1.1<3,7>]dec-2-yl)-4-(cyclopropylmethoxy)1,2,5-thiadiazole] | <1.4 | 1.5 | – | Sedation | 1.4 |
